For series [1] the following is noted: in vivo; cited from earlier work.
Series [2] concerns pancreatic and lung cancer. The following applies: Talabostat alone or with cytokine or chemotherapeutic agents; cited from earlier work.
The next series deals with CT26 tumor cells. As to the kind of experiment: Immunophenotyping of CT26 tumor samples by quantitative PCR (NK cells, perforin, granzyme B, Tregs). In kind it is in vivo. The following applies: CT26, day 7 after first dosing; Talabostat 20 μg/mouse qd, PD-1 antagonist 5 mg/kg. Here is the method: Mice (Balb/c) corresponding to 20±2 g weight, received food and water ad libitum. The study protocol, the procedures involving the care and use of animals were reviewed and approved by the Institutional Animal Care and Use Committee (IACUC) to ensure compliance with the regulations of the Association for Assessment and Accreditation of Laboratory Animal Care (AAALAC).
Tumor Model The CT26 tumor cells were cultured in RPMI1640 medium supplemented with 10% heat inactivated fetal bovine serum, 100 U/ml penicillin and 100 μg/ml streptomycin, at 37° C. in an incubator of 5% CO2. The tumor cells were routinely subcultured three times per week. The cells growing in an exponential growth phase were harvested and counted for tumor inoculation. […]
The immuno-modulatory effect of the single dose (20 μg/mouse qd) administration of Talabostat alone and in combination with PD-1 antagonist (5 mg/kg), at various dose schedules was analysed by collecting the blood and the tumor samples 7 days after the first dosing the mice.
Tumor RNA samples were extracted from the frozen tumor tissues using the Trizol reagent. […] Quantitative PCR were conducted using a master mix from Invitrogen (Cat. #4309155) on an ABI 7900HT Fast Real-Time PCR System. The results were analyzed using a Delta Delta Ct method. […]

The test system of series [3] is MC38 mouse colon cancer cell line. As to the kind of experiment: Antitumor effect in MC38 mouse model of colon adenocarcinoma (tumor volume, tolerability; Study 1 and Study 2). In kind it is in vivo. The source says: Six to seven-week-old female C57BL/6 mice were used in the studies. Mice received food and water ad libitum. The study protocol, the procedures involving the care and use of animals were reviewed and approved by the Institutional Animal Care and Use Committee (IACUC) to ensure compliance with the regulations of the Association for Assessment and Accreditation of Laboratory Animal Care (AAALAC).
MC38 mouse colon cancer cell line was provided by GenScript. The tumor cells were maintained as monolayer culture in DMEM supplemented with 10% fetal bovine serum (FBS), 1% Glutamax® and 1% Penicillin-Streptomycin at 37° C. in an atmosphere with 5% CO2. The cells were routinely subcultured every 2 days to maintain growth at exponential phase. The tumor cells growing in exponential growth phase were harvested by trypsinization, followed by centrifugation at 335×g relative centrifugal force (RCF) in a centrifuge. The supernatant was subsequently removed by aspiration. Cell pellet was resuspended in approximately 10× volume of cell culture medium and counted. The cell suspension was centrifuged again and processed as above and finally resuspended in HBSS−/− at a density of 1×10^7 cells per ml. Cell viability was determined to be 95% by trypan blue staining. Cell suspensions were implanted in the subcutaneous space of the flank of mice of female C57BL/6 mice (2.0×10^6 MC-38 cells in 0.2 mL Hanks Balanced Salt Solution). Mice were inoculated subcutaneously in the right lower flank (near the dorsal thigh region) with a single volume of 0.1 ml cell suspension containing about 1×10^6 cells.
Tumor size was measured twice per week in 2 dimensions using a caliper (recorded up to one decimal point). Tumor volume, expressed in mm^3, was calculated using the following formula, in which “a” and “b” were the long and the short diameters of a tumor, respectively. V (mm^3)=(a×b^2)/2
Animals were weighed and randomized into treatment groups when the mean tumor size was around 120 mm^3 on Day 0.
Data related to tumor volume, tumor weight, and body weight were presented as mean and the standard error of the mean (SEM). Statistical analyses were conducted using Student's t-test. P<0.05 was considered statistically significant. * and ** indicate P<0.05 and P<0.01, respectively.
The antitumor effect of single dose (qd) as well as twice daily (bid) administration of Talabostat alone and in combination with PD-1 antagonist at various dose schedules was evaluated in MC-38 (murine colon) tumor bearing mice. After the tumors were established, mice were sorted into various groups with a mean tumor volume of ˜200 mm^3. The test article and antibody were administered according to the dosing schedules described in Tables 5 and 6.

In another series the test system is melanoma. The settings on record: monotherapy or combination; cited from earlier work.

On to `CC(C)[C@H](N)C(=O)N1CCC[C@H]1B(O)O` [Talabostat, [(2R)-I-I [(2S)-2-amino-3-methyl-1-oxobutyl]-2-pyrrolidinyl] boronic acid], for which the “Most common adverse events” value in series [1] was “edema/peripheral swelling, hypotension, hypovolemia, and dizziness”. In series [2], the “Primary and secondary endpoints in clinical trials” value is listed as “unable to meet primary as well as secondary endpoints”. Besides, the “NK cell activation, perforin (Pfr1) release in tumor (relative mRNA)” value with CT26 tumor cells is on record as “activation in terms of release of perforin”. Also, the “Mean (±SEM) tumor volume” value in series [3] (Study 1, MC38, Day 13, Talabostat 10 μg twice daily p.o.) is recorded as 1.66 (±0.48) cc; in series [3] (Study 1, MC38, Day 13, Talabostat 20 μg twice daily p.o.), 1.30 (±0.42) cc; in series [3] (Study 2, MC38, Day 11, Talabostat 2.5 μg BID p.o.) it was 3.2 (±0.48) cc; in series [3] (Study 2, MC38, Day 11, Talabostat 5 μg BID p.o.) it was 2.9 (±0.42) cc; in series [3] (Study 2, MC38, Day 11, Talabostat 10 μg BID p.o.), 2.9 (±0.18) cc; in series [3] (Study 2, MC38, Day 11, Talabostat 20 μg QD p.o.), 2.0 (±0.43) cc. The “Antitumor effect compared with the vehicle control group” value in series [3] (Study 1, MC38, single treatment groups) is “significant better effect”.

On to “Ipilimumab: CTLA-4 antagonist; human monoclonal antibody, CAS No. 477202-00-9”, for which the “Response rate in melanoma patients” value with melanoma is on record as 11%.

Turning to “Nivolumab: anti-PD-1 antibody, CAS Registry Number 946414-94-4”, in the series on melanoma, the “Response rate in melanoma patients” value is reported as 32%.

The values are drawn from patent publication US11564986B2, “Approach for treatment of cancer via immunomodulation by using talabostat” (ONKOSXCEL THERAPEUTICS, LLC, priority 2015, dated 2023).
